Test results published in patent US9464097B2, “Gold complexes” (UNIVERSITY COURT OF THE UNIVERSITY OF ST. ANDREWS, priority 2010, dated 2016).

Legend:
human cancer cell lines = assay: Cytotoxicity towards human cancer cell lines, overall comparison with cisplatin; format: cell-based; settings: cytotoxicity across the tested cell lines
Procedure: (§1) Cytotoxicity assay: The compound/complex was dissolved in DMSO and diluted in DMSO. The final dilution was in the respective culture medium and the final concentration of DMSO was always below 0.01%. Cells were pipetted into microtitre plates (NUNC) at 4000 cells/well and incubated at 37° C. in 5% CO2 in air for 24 hr. Varying concentrations of the compounds/complexes were applied to the cells in 10 μl volumes. The plates were incubated for 3 days at 37° C. 5% CO2 in air. The viability of the cells was measured using the Dojindo kit CCK-8 (Cell counting Kit—8, Dojindo technologies USA, CK04-11) method after incubation for 3 hr in the absence of light. The plates were read on an ELISA plate reader at a wavelength of 450 nm.

[1] = proton borne by the heteroatom, literature value; cited from earlier work
[2] = system: human urothelial cell line (SV-HUC-1); assay: Cytotoxicity assay (CCK-8 viability), SV-HUC-1; format: cell-based; settings: SV-HUC-1, 3 days incubation
Procedure: as §1

[3] = system: LNCaP (prostate carcinoma) cell line; assay: Cytotoxicity assay (CCK-8 viability), LNCaP; format: cell-based, human; settings: 3 days incubation
Procedure: as §1

## CC(C)c1cccc(C(C)C)c1N1C=CN(c2c(C(C)C)cccc2C(C)C)[CH]1[Au][OH] [complex 2, [Au(OH)(IPr)]]
Human cancer cell lines
  Overall activity compared with cisplatin: superior to that displayed by cisplatin

## Cc1ccc(S)cc1 [p-thiocresol (14a), p-thiocresol]
[1]
  pKa: 10.3

## Cc1ccc(O)cc1 [p-cresol (14b), p-cresol]
[1]
  pKa: 18.9

## N.N.[Cl][Pt][Cl] [cisplatin]
[2]
  IC50: 25 µM
[3]
  IC50: 18 µM
